Experimental data: ChEMBL document CHEMBL3885861, “Open TG-GATES”

Species on record: Rattus norvegicus
Assay: Open TG-GATES - Regimen: Single
Type: toxicity, organism-based, Sprague-Dawley
Design: regimen Single, gender Male, age 6 weeks
Settings: in vivo, po, 50 mg/kg, route gavage, dose level Middle; for APTT / Bas / Eos / Fbg / Hb / Ht / Lym / MCH / MCHC / MCV / Mono / Neu / PT / Plat / RBC / Ret / WBC: tissue Blood; for KIDNEY_L / KIDNEY_R / KIDNEY_TOTAL: tissue Kidney; for LIVER: tissue Liver; for A/G / ALP / ALT / AST / BUN / CRE / Ca / Cl / DBIL / GLC / IP / K / LDH / Na / PL / RALB / TBIL / TC / TG / TP / gamma-GTP: tissue Plasma

For `CC(C)C(=O)Nc1ccc([N+](=O)[O-])c(C(F)(F)F)c1` [FLUTAMIDE], the TERMINAL_BW (3 h) was 209.6 g, the APTT (3 h) was 18.6 s and the Bas (3 h) was 0%. It also gave an Eos (3 h) of 1%, a Fbg (3 h) of 216.6 mg/dL and a Hb (3 h) of 13.4 g/dL. The Ht (3 h) was 39.1%, the Lym (3 h) was 73.6% and the MCH (3 h) was 21.5 pg. It also gave an MCHC (3 h) of 34.2%, an MCV (3 h) of 63 fL and a Mono (3 h) of 2.8%. It also gave a Neu (3 h) of 21.4%, a PT (3 h) of 12.7 s and a Plat (3 h) of 136.9 x10_4/uL. It also gave an RBC (3 h) of 621 x10_4/ul, a Ret (3 h) of 7.8% and a WBC (3 h) of 82.5 x10_2/uL. For the same molecule, the KIDNEY_L (3 h) was 0.9 g, the KIDNEY_R (3 h) was 0.9 g and the KIDNEY_TOTAL (3 h) was 1.8 g. For the same molecule, the LIVER (3 h) was 9.6 g, the A/G (3 h) was 1.7 and the ALP (3 h) was 785.4 IU/L. The ALT (3 h) was 35.8 IU/L, the AST (3 h) was 64 IU/L and the BUN (3 h) was 12 mg/dL. The CRE (3 h) was 0.4 mg/dL, the Ca (3 h) was 10.7 mg/dL and the Cl (3 h) was 103.4 meq/L. For the same molecule, the DBIL (3 h) was 0.1 mg/dL, the GLC (3 h) was 199.4 mg/dL and the IP (3 h) was 9.9 mg/dL. It also gave a K (3 h) of 4.1 meq/L, an LDH (3 h) of 168.4 IU/L and a Na (3 h) of 140 meq/L. The PL (3 h) was 158.6 mg/dL, the RALB (3 h) was 3.5 g/dL and the TBIL (3 h) was 0.2 mg/dL. The TC (3 h) was 80.2 mg/dL, the TG (3 h) was 86.8 mg/dL and the TP (3 h) was 5.6 g/dL. It also gave a gamma-GTP (3 h) of 1.2 IU/L, a TERMINAL_BW (6 h) of 209.1 g and an APTT (6 h) of 18.9 s. It also gave a Bas (6 h) of 0%, an Eos (6 h) of 0.8% and a Fbg (6 h) of 220.4 mg/dL. For the same molecule, the Hb (6 h) was 13.2 g/dL, the Ht (6 h) was 38.3% and the Lym (6 h) was 75%. It also gave an MCH (6 h) of 21.8 pg, an MCHC (6 h) of 34.6% and an MCV (6 h) of 63 fL. It also gave a Mono (6 h) of 3.4%, a Neu (6 h) of 20.4% and a PT (6 h) of 13 s. For the same molecule, the Plat (6 h) was 126.7 x10_4/uL, the RBC (6 h) was 608.4 x10_4/ul and the Ret (6 h) was 7.8%. It also gave a WBC (6 h) of 89.5 x10_2/uL, a KIDNEY_L (6 h) of 1 g and a KIDNEY_R (6 h) of 0.9 g. It also gave a KIDNEY_TOTAL (6 h) of 1.9 g, an LIVER (6 h) of 8.9 g and an A/G (6 h) of 1.6. The ALP (6 h) was 921.6 IU/L, the ALT (6 h) was 33.4 IU/L and the AST (6 h) was 68.2 IU/L. For the same molecule, the BUN (6 h) was 7.6 mg/dL, the CRE (6 h) was 0.4 mg/dL and the Ca (6 h) was 10.6 mg/dL. It also gave a Cl (6 h) of 101.6 meq/L, a DBIL (6 h) of 0.082 mg/dL and a GLC (6 h) of 196 mg/dL. The IP (6 h) was 9.9 mg/dL, the K (6 h) was 3.9 meq/L and the LDH (6 h) was 129.2 IU/L. For the same molecule, the Na (6 h) was 140 meq/L, the PL (6 h) was 140.8 mg/dL and the RALB (6 h) was 3.4 g/dL. For the same molecule, the TBIL (6 h) was 0.1 mg/dL, the TC (6 h) was 79.6 mg/dL and the TG (6 h) was 40.2 mg/dL. The TP (6 h) was 5.5 g/dL, the gamma-GTP (6 h) was 1.2 IU/L and the TERMINAL_BW (9 h) was 207.5 g. It also gave an APTT (9 h) of 18.7 s, a Bas (9 h) of 0% and an Eos (9 h) of 1%. For the same molecule, the Fbg (9 h) was 227 mg/dL, the Hb (9 h) was 13.1 g/dL and the Ht (9 h) was 38.6%. The Lym (9 h) was 76.6%, the MCH (9 h) was 21.9 pg and the MCHC (9 h) was 34.1%. For the same molecule, the MCV (9 h) was 64.3 fL, the Mono (9 h) was 3% and the Neu (9 h) was 18.6%. The PT (9 h) was 13 s, the Plat (9 h) was 135.1 x10_4/uL and the RBC (9 h) was 601.2 x10_4/ul. It also gave a Ret (9 h) of 8.2%, a WBC (9 h) of 75 x10_2/uL and a KIDNEY_L (9 h) of 0.9 g. The KIDNEY_R (9 h) was 0.9 g, the KIDNEY_TOTAL (9 h) was 1.8 g and the LIVER (9 h) was 8.6 g. The A/G (9 h) was 1.7, the ALP (9 h) was 922.4 IU/L and the ALT (9 h) was 30.2 IU/L. It also gave an AST (9 h) of 61.2 IU/L, a BUN (9 h) of 9.8 mg/dL and a CRE (9 h) of 0.3 mg/dL. The Ca (9 h) was 10.3 mg/dL, the Cl (9 h) was 103.8 meq/L and the DBIL (9 h) was 0.088 mg/dL. For the same molecule, the GLC (9 h) was 207.4 mg/dL, the IP (9 h) was 9.9 mg/dL and the K (9 h) was 3.8 meq/L. The LDH (9 h) was 123.2 IU/L, the Na (9 h) was 140.6 meq/L and the PL (9 h) was 153.2 mg/dL. The RALB (9 h) was 3.4 g/dL, the TBIL (9 h) was 0.2 mg/dL and the TC (9 h) was 81.2 mg/dL. For the same molecule, the TG (9 h) was 53.6 mg/dL, the TP (9 h) was 5.4 g/dL and the gamma-GTP (9 h) was 1.2 IU/L. The TERMINAL_BW (24 h) was 216.8 g, the APTT (24 h) was 18.2 s and the Bas (24 h) was 0%. For the same molecule, the Eos (24 h) was 1%, the Fbg (24 h) was 209.6 mg/dL and the Hb (24 h) was 13.7 g/dL. For the same molecule, the Ht (24 h) was 40.6%, the Lym (24 h) was 77.6% and the MCH (24 h) was 21.6 pg. For the same molecule, the MCHC (24 h) was 33.8%, the MCV (24 h) was 63.7 fL and the Mono (24 h) was 3.2%. For the same molecule, the Neu (24 h) was 17%, the PT (24 h) was 12.9 s and the Plat (24 h) was 132.9 x10_4/uL. It also gave an RBC (24 h) of 637 x10_4/ul, a Ret (24 h) of 6.7% and a WBC (24 h) of 93 x10_2/uL. For the same molecule, the KIDNEY_L (24 h) was 0.9 g, the KIDNEY_R (24 h) was 0.9 g and the KIDNEY_TOTAL (24 h) was 1.8 g. It also gave an LIVER (24 h) of 10.5 g, an A/G (24 h) of 1.5 and an ALP (24 h) of 950.6 IU/L. For the same molecule, the ALT (24 h) was 38.2 IU/L, the AST (24 h) was 65.8 IU/L and the BUN (24 h) was 16 mg/dL. It also gave a CRE (24 h) of 0.4 mg/dL, a Ca (24 h) of 10.5 mg/dL and a Cl (24 h) of 103.2 meq/L. It also gave a DBIL (24 h) of 0.1 mg/dL, a GLC (24 h) of 203.4 mg/dL and an IP (24 h) of 6.8 mg/dL. For the same molecule, the K (24 h) was 3.8 meq/L, the LDH (24 h) was 145.2 IU/L and the Na (24 h) was 140.6 meq/L. For the same molecule, the PL (24 h) was 141.2 mg/dL, the RALB (24 h) was 3.4 g/dL and the TBIL (24 h) was 0.2 mg/dL. It also gave a TC (24 h) of 80 mg/dL, a TG (24 h) of 83.4 mg/dL and a TP (24 h) of 5.7 g/dL. The gamma-GTP (24 h) was 1 IU/L.
